Like-named read-outs stand apart in the source and are kept apart here.
Key:
Format in all cases: cell-based
RSV strain A2 = assay: microbe, parasite or virus in culture; conditions: Table 3, HEp-2 cells, RSV A2, 4 days, read-out: RSV HEp-2 EC50
Summary of the method: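 Cytopathic-effect protection assay: HEp-2 cells (50,000/mL) infected with pre-titered RSV A2 onto 3-fold serial compound dilutions, incubated 4 days at 37° C. Cell viability read by CellTiter-Glo luminescence; percent inhibition derived against 0% and 100% virus-inhibition controls.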

DENV2 replicon = assay: DENV-2 Huh-7 Rep EC50 (replicon luminescence)
Summary of the method: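 EC50 derived from luminescence dose-response, normalised to DMSO-only 0% inhibition wells, after 1.5 h with EnduRen substrate. Compounds were first exposed for 48 h at 37° C to DENV2 replicon Huh-7 cells (5,000/well).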

RSV A2 = assay: RSV NHBE EC50 (RSV A2 antiviral assay in NHBE cells); conditions: Table 3, NHBE cells, RSV A2, 4 days, read-out: RSV NHBE EC50
Summary of the method: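 Read-out: CellTiter-Glo luminescence of cell viability after 4 days at 37° C. Primary NHBE cells, 7,500/well, 3-fold compound dilutions, 0.05% DMSO, infected with RSV A2 (1×10^4.5 TCID/mL).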

HRV16 = HRV16 HeLa EC50 (cytopathic effect in H1-HeLa cells)
Summary of the method: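 Read-out is luminescent cell viability (CellTiter-Glo) after 96 h of infection at 33 °C, scaled between uninfected and infected-untreated wells. Before infection with titrated virus, compounds went onto H1-HeLa cells as triplicate 3-fold dilution series.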

[1] = human respiratory syncytial virus, HEp-2, 96 h
[2] = Dengue virus, DENV2, Huh-7, 48 h, read-out: DENV-2 REP Huh7 EC50
[3] = human respiratory syncytial virus, NHBE, 96 h
[4] = 96 h, Table 3; H1-HeLa cells, 96 h; read-out: HRV16 HeLa EC50
[5] = Table 3, Huh-7 DENV2 replicon cells, 48 hours, read-out: DENV-2 REP Huh7 EC50
[6] = Table 3; H1-HeLa cells, 96 h; read-out: HRV16 HeLa EC50
[7] = Dengue virus, DENV2, Huh-7, 48 h, read-out: DENV-2 REP Huh7 EC50, Table 3, Huh-7 DENV2 replicon cells, 48 hours

Compound: CCC(=O)O[C@H]1[C@H](c2ccc3c(N)ncnn23)O[C@](C#N)(COP(=O)(N[C@@H](C)C(=O)OC[C@H]2CC[C@H](N)CC2)Oc2ccccc2)[C@H]1OC(=O)CC (stereo partly drawn) [Example 159, (2R,3S,4S,5S)-2-((((((S)-1-(((1r,4S)-4-aminocyclohexyl)methoxy)-1-oxopropan-2-yl)amino)(phenoxy)phosphoryl)oxy)methyl)-5-(4-aminopyrrolo[2,1-f][1,2,4]triazin-7-yl)-2-cyanotetrahydrofuran-3,4-diyl dipropionate]
- EC50 (RSV strain A2; [1]): 7990 nM
- EC50 (DENV2 replicon; [2]): > 50000 nM
- EC50 (RSV A2; [3]): 1550 nM
- EC50 (HRV16; [4]): 33100 nM

Compound: CC(=O)O[C@H]1[C@H](c2ccc3c(N)ncnn23)O[C@](C#N)(COP(=O)(N[C@@H](C)C(=O)OC2CCC2)Oc2ccccc2)[C@H]1OC(C)=O (stereo partly drawn) [Example 198, (2R,3S,4S,5S)-5-(4-aminopyrrolo[2,1-f][1,2,4]triazin-7-yl)-2-cyano-2-((((((S)-1-cyclobutoxy-1-oxopropan-2-yl)amino)(phenoxy)phosphoryl)oxy)methyl) tetrahydrofuran-3,4-diyl diacetate]
- EC50 (RSV strain A2): 48 nM
- EC50 (DENV2 replicon; [5]): 6620 nM
- EC50 (RSV A2): 37 nM
- EC50 (HRV16; [6]): 319 nM

Compound: COC(=O)[C@H](C)N[P@@](=O)(OC[C@@]1(C#N)O[C@@H](c2ccc3c(N)ncnn23)[C@H](OC(C)=O)[C@@H]1OC(C)=O)Oc1ccccc1 (single isomer, unassigned) [Example 130]
- EC50 (RSV strain A2; [1]): 198 nM
- EC50 (DENV2 replicon; [2]): 21000 nM
- EC50 (RSV A2; [3]): 59 nM
- EC50 (HRV16; [4]): 1780 nM

Compound: CC(=O)O[C@H]1[C@H](c2ccc3c(N)ncnn23)O[C@](C#N)(COP(=O)(N[C@@H](C)C(=O)OCc2ccccc2)Oc2ccccc2)[C@H]1OC(C)=O (stereo partly drawn) [Example 126, (2R,3S,4S,5S)-5-(4-aminopyrrolo[2,1-f][1,2,4]triazin-7-yl)-2-((((((S)-1-(benzyloxy)-1-oxopropan-2-yl)amino)(phenoxy)phosphoryl)oxy)methyl)-2-cyanotetrahydrofuran-3,4-diyl diacetate]
- EC50 (RSV strain A2; [1]): 121 nM
- EC50 (DENV2 replicon; [2]): 16000 nM
- EC50 (RSV A2; [3]): 45 nM
- EC50 (HRV16; [4]): 514 nM

Compound: CC(C)C(=O)O[C@H]1[C@H](c2ccc3c(/N=C/N(C)C)ncnn23)O[C@](C#N)(COP(=O)(N[C@@H](C)C(=O)OC2CCOCC2)Oc2ccccc2)[C@H]1OC(=O)C(C)C (stereo partly drawn) [Example 218, (2R,3S,4S,5S)-2-cyano-5-(4-(((E)-(dimethylamino)methylene)amino)pyrrolo[2,1-f][1,2,4]triazin-7-yl)-2-((((((S)-1-oxo-1-((tetrahydro-2H-pyran-4-yl)oxy)propan-2-yl)amino)(phenoxy)phosphoryl)oxy)methyl) tetrahydrofuran-3,4-diyl bis(2-methylpropanoate)]
- EC50 (RSV strain A2): 30 nM
- EC50 (DENV2 replicon; [5]): 5510 nM
- EC50 (RSV A2): 17 nM
- EC50 (HRV16; [6]): 112 nM

Compound: CC(C)C(=O)O[C@H]1[C@H](c2ccc3c(N)ncnn23)O[C@](C#N)(COP(=O)(N[C@@H](C)C(=O)OCC2CCOCC2)Oc2ccccc2)[C@H]1OC(=O)C(C)C (single isomer, unassigned) [Example 182]
- EC50 (RSV strain A2): 88 nM
- EC50 (DENV2 replicon; [5]): 3500 nM
- EC50 (RSV A2): 17 nM
- EC50 (HRV16; [6]): 177 nM

Compound: CCCCC(=O)O[C@H]1[C@H](c2ccc3c(N)ncnn23)O[C@](C#N)(COP(=O)(N[C@@H](C)C(=O)OCC)N[C@@H](C)C(=O)OCC)[C@H]1OC(=O)CCCC [Example 211, (2R,3S,4S,5S)-5-(4-Aminopyrrolo[2,1-f][1,2,4]triazin-7-yl)-2-(((bis(((S)-1-ethoxy-1-oxopropan-2-yl)amino)phosphoryl)oxy)methyl)-2-cyanotetrahydrofuran-3,4-diyl dipentanoate]
- EC50 (RSV strain A2): 653 nM
- EC50 (DENV2 replicon; read-out: DENV-2 REP Huh7 EC50, Table 3, Huh-7 DENV2 replicon cells, 48 hours): 28900 nM
- EC50 (RSV A2): 946 nM
- EC50 (HRV16; [6]): 1970 nM

Compound: CCC(=O)O[C@H]1[C@H](c2ccc3c(N)ncnn23)O[C@](C#N)(COP(=O)(N[C@@H](C)C(=O)OC)N[C@@H](C)C(=O)OC)[C@H]1OC(=O)CC [Example 199]
- EC50 (RSV strain A2; [1]): 4110 nM
- EC50 (DENV2 replicon; [7]): > 50000 nM
- EC50 (RSV A2; [3]): 235 nM
- EC50 (HRV16; [4]): 19500 nM

Compound: CCC(=O)O[C@H]1[C@H](c2ccc3c(N)ncnn23)O[C@](C#N)(COP(=O)(N[C@@H](C)C(=O)OC(C)C)Oc2ccc(C[C@H](N)C(=O)OC)cc2)[C@H]1OC(=O)CC (stereo partly drawn) [Example 217, (2R,3S,4S,5S)-2-((((4-((S)-2-amino-3-methoxy-3-oxopropyl)phenoxy)(((S)-1-isopropoxy-1-oxopropan-2-yl)amino)phosphoryl)oxy)methyl)-5-(4-aminopyrrolo[2,1-f][1,2,4]triazin-7-yl)-2-cyanotetrahydrofuran-3,4-diyl dipropionate]
- EC50 (RSV strain A2; [1]): 9840 nM
- EC50 (DENV2 replicon; [2]): > 50000 nM
- EC50 (RSV A2; [3]): 2060 nM
- EC50 (HRV16; [4]): 11900 nM

Compound: CCC(=O)O[C@H]1[C@H](c2ccc3c(N)ncnn23)O[C@](C#N)(COP(=O)(N[C@@H](C)C(=O)OC(C)C)N[C@@H](C)C(=O)OC(C)C)[C@H]1OC(=O)CC [Example 123, ((2R,3S,4R,5S)-5-(4-aminopyrrolo[2,1-f][1,2,4]triazin-7-yl)-2-cyano-3,4-dipropionatetetrahydrofuran-2-yl)methyl bis-isopropyl L-alaninate phosphate]
- EC50 (RSV strain A2; [1]): 2280 nM
- EC50 (DENV2 replicon; [7]): > 50000 nM
- EC50 (RSV A2; [3]): 175 nM
- EC50 (HRV16; [4]): 7570 nM

Compound: CCOC(=O)[C@H](C)NP(=O)(N[C@@H](C)C(=O)OCC)OC[C@@]1(C#N)O[C@@H](c2ccc3c(N)ncnn23)[C@H](OC(C)=O)[C@@H]1OC(C)=O [Example 134, ((2R,3S,4R,5S)-5-(4-aminopyrrolo[2,1-f][1,2,4]triazin-7-yl)-2-cyano-3,4-diacetatetetrahydrofuran-2-yl)methyl bis-ethyl L-alaninate phosphate]
- EC50 (RSV strain A2; [1]): 7340 nM
- EC50 (DENV2 replicon; [7]): > 50000 nM
- EC50 (RSV A2; [3]): 1590 nM
- EC50 (HRV16; [4]): > 50000 nM

Compound: CCCCOC(=O)[C@H](C)NP(=O)(N[C@@H](C)C(=O)OCCCC)OC[C@@]1(C#N)O[C@@H](c2ccc3c(N)ncnn23)[C@H](OC(=O)CC)[C@@H]1OC(=O)CC [Example 193]
- EC50 (RSV strain A2; [1]): 610 nM
- EC50 (DENV2 replicon; [7]): 30000 nM
- EC50 (RSV A2; [3]): 125 nM
- EC50 (HRV16; [4]): 1620 nM

Compound: CSCCOP(=O)(N[C@@H](C)C(=O)OC(C)C)OC[C@@]1(C#N)O[C@@H](c2ccc3c(N)ncnn23)[C@H](OC(=O)C(C)C)[C@@H]1OC(=O)C(C)C (stereo partly drawn) [Example 213, (2R,3S,4S,5S)-5-(4-aminopyrrolo[2,1-f][1,2,4]triazin-7-yl)-2-cyano-2-((((((S)-1-isopropoxy-1-oxopropan-2-yl)amino)(2-(methylthio)ethoxy)phosphoryl)oxy)methyl) tetrahydrofuran-3,4-diyl bis(2-methylpropanoate)]
- EC50 (RSV strain A2; [1]): 11800 nM
- EC50 (DENV2 replicon; [7]): 23000 nM
- EC50 (RSV A2; [3]): 2250 nM
- EC50 (HRV16; [4]): 13100 nM

Compound: CC(C)C(=O)O[C@H]1[C@H](c2ccc3c(N)ncnn23)O[C@](C#N)(CO[P@@](=O)(N[C@@H](C)C(=O)O[C@H]2CC[C@H](C(F)(F)F)CC2)Oc2ccccc2)[C@H]1OC(=O)C(C)C [Example 79, (2R,3S,4S,5S)-5-(4-Aminopyrrolo[2,1-f][1,2,4]triazin-7-yl)-2-cyano-2-((((S)-(((S)-1-oxo-1-((trans-4-(trifluoromethyl)cyclohexyl)oxy)propan-2-yl)amino) (phenoxy)phosphoryl)oxy)methyl)tetrahydrofuran-3,4-diyl bis(2-methylpropanoate)]
- EC50 (RSV strain A2; [1]): 105 nM
- EC50 (DENV2 replicon; [2]): 12400 nM
- EC50 (RSV A2; [3]): 19 nM
- EC50 (HRV16; [4]): 217 nM

Compound: CC(C)OC(=O)[C@H](C)N[P@](=O)(OC[C@@]1(C#N)O[C@@H](c2ccc3c(NC(=O)C(C)C)ncnn23)[C@H](OC(=O)C(C)C)[C@@H]1OC(=O)C(C)C)Oc1ccccc1 [Example 106]
- EC50 (RSV strain A2; [1]): 173 nM
- EC50 (DENV2 replicon; [2]): 14600 nM
- EC50 (RSV A2; [3]): 15 nM
- EC50 (HRV16; [4]): 805 nM

Compound: CC(=O)OC1[C@H](c2ccc3c(N)ncnn23)O[C@](C#N)(COP(=O)(N[C@@H](C)C(=O)OCC2CCOCC2)Oc2ccccc2)[C@H]1OC(C)=O (stereo in doubt) [Example 110, (2R,3S,4R,5S)-5-(4-aminopyrrolo[2,1-f][1,2,4]triazin-7-yl)-2-cyano-2-((((((S)-1-oxo-1-((tetrahydro-2H-pyran-4-yl)methoxy)propan-2-yl)amino)(phenoxy)phosphoryl)oxy)methyl)tetrahydrofuran-3,4-diyl diacetate]
- EC50 (RSV strain A2; [1]): 327 nM
- EC50 (DENV2 replicon; [2]): 56300 nM
- EC50 (RSV A2; [3]): 40 nM
- EC50 (HRV16; [4]): 2510 nM

Compound: CC(C)C(=O)O[C@H]1[C@H](c2ccc3c(N)ncnn23)O[C@](C#N)(COP(=O)(N[C@@H](C)C(=O)OC[C@H]2CC[C@H](C(F)(F)F)CC2)Oc2ccccc2)[C@H]1OC(=O)C(C)C (some centres unmarked) [Example 87]
- EC50 (RSV strain A2; [1]): 119 nM
- EC50 (DENV2 replicon; [2]): 12300 nM
- EC50 (RSV A2; [3]): 23 nM
- EC50 (HRV16; [4]): 220 nM
